Paper PMC12434668 (Journal of Medicinal Chemistry, 2025)
Values after ≈ are worked out from the molar mass of the structure shown. Values joined by “and” are separate entries in the source; they are usually repeats but may differ in a detail not shown here. Equal entries are not always repeated. Where two headings read alike, the source gives them in different places.

Columns and labels:
[1] = Mouse pharmacokinetic analyses (i.v. and oral); assay type: in vivo; settings: plasma
Procedure: For PK analysis, mice were administered intravenously or orally with compound formulated in 10% ethanol and 10% Cremophor EL. Compound 13 dosing was also screened with 20% Phosphal IPG, 20% Phosphal MCT, 10% HP-β-CD, and 40% HP-β-CD. Plasma samples were obtained at predefined time points and compound concentrations in plasma were measured by quantitative HPLC–MS/MS using an internal standard. Calibration and quality control samples were prepared using blank plasma from untreated animals. Samples were precipitated with acetonitrile and injected into a HPLC system (Agilent 1200). Separation was performed by gradients of 5 mmol/L ammonium acetate pH 5.0 and acetonitrile with 0.1% formic acid on a Luna C8 reversed-phase column with 2.5 μm particles (Phenomenex). The HPLC was interfaced by ESI operated in positive ionization mode to a triple quadrupole mass spectrometer (6500+ Triple Quad System, SCIEX) operated in multiple reaction monitoring mode. Chromatograms were analyzed with Analyst (SCIEX) and pharmacokinetic parameters were calculated by noncompartmental analysis using proprietary software.

[2] = tested on: A427 cell line-derived NSCLC xenograft; test: Subcutaneous A427 NSCLC xenograft efficacy study; assay type: in vivo; settings: for tumor regressions (day 28): animals regressing / group
Text: Female BomTac:NMRI-Foxn1nu mice and CB17/Icr-Prkdc(scid)/IcrCrl and were obtained from Taconic Denmark at an age of 6–8 weeks. After arrival of the local animal facility at Boehringer Ingelheim RCV GmbH & Co KG (institutional approval–Amt der Wiener Landesregierung, Magistratsabteilung 58, GZ: 135147/2013/4) mice were allowed to adjust to housing conditions at least for 5 days before the start of the experiment. Mice were group-housed under pathogen-free and controlled environmental conditions and handled according to the institutional, governmental and European Union guidelines (Austrian Animal Protection Laws, GV-SOLAS and FELASA guidelines). Animal studies were approved by the internal ethics committee and the local governmental committee (Amt der Wiener Landesregierung, Magistratsabteilung 58). To establish subcutaneous tumors mice were injected with 5 × 10^6 A427 cells in Matrigel (CB17/Icr-Prkdc(scid)/IcrCrl. Tumor diameters were measured with a caliper three times a week. The volume of each tumor [in mm^3] was calculated according to the formula “tumor volume = length*diameter^2*π/6.” To monitor side effects of treatment, mice were inspected daily for abnormalities and body weight was determined. Animals were sacrificed when the tumors reached a size of 1500 mm^3. Mice were dispatched randomly into treatment groups when the tumor size was 160 mm^3. Tumors were reported as regressing when the tumor volume at a given day was below the tumor volume at treatment start.

[3] = set-up: method as in earlier work; settings: ref 66 (number lost in text); cited from earlier work
[4] = target: T1, Mcl-1 (Homo sapiens, UniProt Q07820); test: TR-FRET binding assay (FITC-Bak peptide competition)
T1 construct: Briefly, a previously reported construct was subcloned into an expression vector (pDEST-HisMBP); MBP (from vector pDEST-HisMBP); made in house; host or cells: Escherichia coli BL21 CodonPlus (DE3) RIL
Text: Protein preparation was described previously. Briefly, a previously reported construct was subcloned into an expression vector (pDEST-HisMBP) expressed in Escherichia coli BL21 CodonPlus (DE3) RIL (Stratagene) and purified through nickel-column and size-exclusion chromatography sequentially.
Mixtures containing vehicle without compound served as a negative control, while mixtures containing no protein served as a positive control. […] Two or more repeats were obtained and average K i values are reported.

[5] = tested on: NCI-H929 cells; test: In vitro proliferation assay (CellTiter-Glo), H929; assay type: cell-based; settings: Homo sapiens
Procedure: (§1) NCI-H929, A427, and K562 cell lines were obtained from ATCC. NCI-H929 cells were cultured in RPMI1640 (ATCC-formulated, Catalog No. 30-2001) + 10% fetal calf serum (FCS, GIBCO BRL, Cat. No. 26140) + 0.05 mM mercaptoethanol. A-427 cells were cultured in RPMI1640 (ATCC-formulated, Catalog No. 30-2001) + 10% fetal calf serum (FCS, GIBCO BRL, Cat. No. 26140). K562 cell lines were cultured in Iscove’s Modified Dulbecco Medium (Gibco-formulated, purchased from Thermo-Fisher, Cat. No. 12440-053) + 10% fetal bovine serum (FBS, Sigma-Aldrich, F2442). All cell lines were cultured at 37 °C with 5% CO2 in a humidified incubator and have been regularly tested negatively for mycoplasm contamination.
(§2) Cells were seeded at 750–1500 cells per well (depending on growth kinetics) in 384-well plates (Corning, Catalog No. 3707) or at 3000 cells per well in 96-well plates in the respective growth medium and allowed to settle overnight. Suspension cells were plated immediately before compound addition. Adherent cell lines were incubated overnight at 37 °C in a tissue culture incubator prior to compound addition. Compounds were added in triplicates using an HP D300e Digital Dispenser (Hewlett-Packard) or manually at the concentrations indicated and total volumes were normalized using DMSO backfill, with final DMSO concentration of 0.5%. Control wells were treated with DMSO only. Following incubation for 72 or 96 h, a Cell Titer-Glo assay was conducted following the manufacturer recommendations (Promega, G9243) and luminescence was measured using a Victor X5 (PerkinElmer) or a Cytation 3 (Biotek) plate reader. % Viability was defined as relative luminescence units (RLU) of each well divided by the RLU of cells on day 0. Four parameter sigmoidal dose–response curves were generated and IC50 values were determined using XLFit (IDBS) software (eq 205) or in-house software. Drug combination experiments were performed in 96-well or 384-well format and drug synergy was determined using the BLISS model (PMID: 26171228).

[6] = tested on: A427 cells; test: In vitro proliferation assay (CellTiter-Glo), A427; assay type: cell-based; settings: Homo sapiens, A-427
Procedure: as §1, §2

[7] = tested on: K562 cells; test: In vitro proliferation counterscreen, Mcl-1 insensitive K562; assay type: cell-based; settings: for GI50: Homo sapiens, Mcl-1 insensitive K562, top concentration tested 12.5 µM
Procedure: NCI-H929, A427, and K562 cell lines were obtained from ATCC.
Suspension cells were plated immediately before compound addition. Adherent cell lines were incubated overnight at 37 °C in a tissue culture incubator prior to compound addition. Compounds were added in triplicates using an HP D300e Digital Dispenser (Hewlett-Packard) or manually at the concentrations indicated and total volumes were normalized using DMSO backfill, with final DMSO concentration of 0.5%. Control wells were treated with DMSO only. Following incubation for 72 or 96 h, a Cell Titer-Glo assay was conducted following the manufacturer recommendations (Promega, G9243) and luminescence was measured using a Victor X5 (PerkinElmer) or a Cytation 3 (Biotek) plate reader. % Viability was defined as relative luminescence units (RLU) of each well divided by the RLU of cells on day 0.

[8] = tested on: caspase 3/7 in H929 cells; test: Caspase 3/7 induction assay (Caspase-Glo), H929; assay type: cell-based; settings: compound treatment for 3 h; for EC50: Homo sapiens, NCI-H929
Procedure: (§3) Cells were treated with a 10-point compound titration and incubated at 37 °C for 3 h.

[9] = tested on: caspase 3/7 in A427 cells; test: Caspase 3/7 induction assay (Caspase-Glo), A427; assay type: cell-based; settings: compound treatment for 3 h; for EC50: Homo sapiens, A-427
Procedure: as §3

[10] = tested on: caspase 3/7 in K562 cells; test: Caspase 3/7 induction assay (Caspase-Glo), K562; assay type: cell-based; settings: compound treatment for 3 h; for EC50: Homo sapiens, K562
Procedure: as §3

[11] = Kinetic aqueous solubility; assay type: physicochemical
[12] = tested on: Bcl-2; test: Selectivity for Mcl-1 over Bcl-2; assay type: binding
[13] = tested on: Bcl-xL; test: Selectivity for Mcl-1 over Bcl-xL; assay type: binding
[14] = in the presence of 1% fetal bovine serum, average of at least n = 2, read-out: TRFRET, Mcl-1 Ki
[15] = supplementary CSV, unit inferred
[16] = iv, dosed at 20 mg/kg, read-out: i.v. mouse CL
[17] = iv, supplementary CSV, unit not given (Table 1: 20 mg/kg, 14 and 16 at 10 mg/kg), read-out: CL
[18] = aqueous medium at pH 6.8, pH 6.8
[19] = H929 cell line, average of at least n = 2, triplicate
[20] = A427 cell line, average of at least n = 2, triplicate

T1 sequence (Q07820 whole entry): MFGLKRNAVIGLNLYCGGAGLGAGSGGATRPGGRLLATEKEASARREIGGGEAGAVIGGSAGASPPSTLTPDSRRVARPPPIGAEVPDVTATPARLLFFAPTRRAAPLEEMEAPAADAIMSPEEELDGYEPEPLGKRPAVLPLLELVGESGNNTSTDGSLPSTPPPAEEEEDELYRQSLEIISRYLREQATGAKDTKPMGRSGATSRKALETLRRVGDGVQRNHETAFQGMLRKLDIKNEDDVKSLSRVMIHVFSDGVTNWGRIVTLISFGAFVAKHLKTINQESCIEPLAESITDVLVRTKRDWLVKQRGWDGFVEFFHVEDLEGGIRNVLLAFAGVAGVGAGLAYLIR

Ki [4, 14] [nM]	EC50 [8] [nM]	EC50 [9] [nM]	EC50 [10] [nM]	clearance [1, 16] [mL/min/kg]	clearance [1, 17] [mL/min/kg]	SMILES	GI50 [7] [nM]	H929 Caspase 3/7 maximum activity, fold over vehicle (FoV) [8]	A427 Caspase 3/7 fold over vehicle (FoV) [9] [fold]	K562 Caspase 3/7 fold over vehicle (FoV) [10] [fold]	solubility kinetic [11, 18] [µg/mL]	GI50 [5, 19] [nM]	GI50 [6, 20] [nM]	also measured
						COc1c(OCC2CCOCC2)cc(N2C[C@@H](C)n3c(c(CCCOc4cc(C)c(Cl)c(C)c4)c4ccc(Cl)c(-c5c(C)nc(C)nc5C)c43)C2=O)c2c1cc(C(=O)O)n2C [Compound 1]								AUC ([1]; iv, 40 mg/kg q14d i.v., xenograft study, read-out: AUC): 198 µM·h; tumor regressions (day 28) ([2]; 40 mg/kg q14d i.v.): 0/8; dog CL [3]: 5.2 mL/min/kg
0.08 ± 0.01	9	11	> 3120	6.6	6.6	COc1cc2c3c(cc(C(=O)O)n3CCCOCc3nn(C)c(C)c3-c3c(Cl)ccc4c(CCCOc5cc(C)c(Cl)c(C)c5)c5n(c34)[C@H](C)CN2C5=O)c1OC [Compound 10, (2^63^4 S a ,1^72^2 R a ,2^4 R)-2^7-Chloro-2^10-(3-(4-chloro-3,5-dimethylphenoxy)propyl)-1^4,1^5-dimethoxy-2^4,3^1,3^5-trimethyl-2^1-oxo-2^1,2^2,2^3,2^4-tetrahydro-1^1 H,3^1 H-5-oxa-2(2,6)-pyrazino[1,2-a]indola-1(7,1)-indola-3(4,3)-pyrazolacyclooctaphane-1^2-carboxylic Acid]	> 9700	16 fold	13	1.4	2 (≈ 2.45 µM)			GI50 [5, 15]: 20 nM; GI50 [6, 15]: 48 nM
< 0.08	16	12	> 3120	5.7	5.7	COc1cc2c3c(cc(C(=O)O)n3CCCOCc3nn(C)cc3-c3c(Cl)ccc4c(CCCOc5cc(C)c(Cl)c(C)c5)c5n(c34)[C@H](C)CN2C5=O)c1C [Compound 17, (2^63^4 S a ,1^72^2 R a ,2^4 R)-2^7-Chloro-2^10-(3-(4-chloro-3,5-dimethylphenoxy)propyl)-1^5-methoxy-1^4,2^4,3^1-trimethyl-2^1-oxo-2^1,2^2,2^3,2^4-tetrahydro-1^1 H,3^1 H-5-oxa-2(2,6)-pyrazino[1,2-a]indola-1(7,1)-indola-3(4,3)-pyrazolacyclooctaphane-1^2-carboxylic Acid]	> 12500	16 fold and 16 (16) fold	16	1.3		23 ± 5	32 ± 7	Ki ([4]; supplementary CSV, unit inferred, read-out: Ki TRFRET): < 0.02 nM; solubility kinetic ([11]; aqueous medium, pH 6.8, pH 6.8): 39 µg/mL (≈ 49.7 µM)

SMILES	Ki [4, 14] [nM]	EC50 [8] [nM]	EC50 [9] [nM]	EC50 [10] [nM]	clearance [1, 16] [mL/min/kg]	clearance [1, 17] [mL/min/kg]	GI50 [7] [nM]	H929 Caspase 3/7 maximum activity, fold over vehicle (FoV) [8]	A427 Caspase 3/7 fold over vehicle (FoV) [9] [fold]	K562 Caspase 3/7 fold over vehicle (FoV) [10] [fold]	solubility kinetic [11, 18] [µg/mL]	GI50 [5, 19] [nM]	GI50 [6, 20] [nM]	also measured
COc1cc2c3c(cc(C(=O)O)n3CCCOCc3nn(C)cc3-c3c(Cl)ccc4c(CCCOc5cc(C)c(Cl)c(C)c5)c5n(c34)[C@H](C)CN2C5=O)c1OC [Compound 13, (2^63^4 S a ,1^72^2 R a ,2^4 R)-2^7-Chloro-2^10-(3-(4-chloro-3,5-dimethylphenoxy)propyl)-1^4,1^5-dimethoxy-2^4,3^1-dimethyl-2^1-oxo-2^1,2^2,2^3,2^4-tetrahydro-1^1 H,3^1 H-5-oxa-2(2,6)-pyrazino[1,2-a]indola-1(7,1)-indola-3(4,3)-pyrazolacyclooctaphane-1^2-carboxylic Acid]	< 0.08	13	7.8	> 3120	7.4	7.4	> 12500	16 fold	16	1.3	85 (≈ 106 µM)	14 ± 4	25 ± 9	selectivity for Mcl-1-sensitive cell lines over the K562 control ([7]; GI50 ratio): > 900 fold; AUC ([1]; iv, 20 mg/kg, read-out: AUCIV): 60.9 µM·h; AUC ([1]; iv, 30 mg/kg q14d i.v., xenograft study, read-out: AUC): 144 µM·h; AUC ([1]; iv, 60 mg/kg q14d i.v., xenograft study, read-out: AUC): 481 µM·h; AUC ([1]; oral, 20 mg/kg, read-out: AUCPO): 0.625 µM·h; bioavailability ([1]; po, read-out: oral bioavailability (F)): 1%; tolerability, body weight ([2]; 60 mg/kg q14d i.v.): body weight behaved similarly to the vehicle control cohort; tumor regressions (day 28) ([2]; 60 mg/kg q14d i.v.): 7/8; tumor outgrowth, study day ([2]; sc, 60 mg/kg, 480 h): ~50 study day; selectivity for Mcl-1 over Bcl-2 [12]: > 50,000 fold; selectivity for Mcl-1 over Bcl-xL [13]: > 50,000 fold
